According to the supplement of paper PMC10307832:

How the values were obtained:
Assay in all cases: relative viability (nuclei count vs DMSO), 5 days (fraction); higher = more cells survive
NCI-H358 = tested on: NCI-H358
In short: (§1)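 Lung cancer cell lines, seeded in 1536-well plates, were treated the following day by pin tool with a single drug or with five library-drug doses (not always all listed) in √10 steps on top of a fixed anchor-drug dose. Cells were fixed and nuclei stained in one step after 5 days, and nuclei were counted. Relative viability is the nuclei count for treated wells divided by that for vehicle wells, reported as medians of duplicate plates.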

HCC-78 = tested on: HCC-78
In short: as §1

HCC-827 = tested on: HCC-827
In short: as §1

NCI-H1650 = tested on: NCI-H1650
In short: as §1

NCI-H2126 = tested on: NCI-H2126
In short: as §1

COR-L 105 = tested on: COR-L 105
In short: as §1

NCI-H1944 = tested on: NCI-H1944
In short: as §1

SW 1573 = tested on: SW 1573
In short: as §1

EPLC-272H = tested on: EPLC-272H
In short: as §1

SK-MES-1 = tested on: SK-MES-1
In short: as §1

LCLC-97TM1 = tested on: LCLC-97TM1
In short: as §1

O=C(O)CCCCC(CCSCc1ccccc1)SCc1ccccc1 (centres undefined) [CPI-613] + Nc1nc2[nH]cc(CCc3ccc(C(=O)N[C@@H](CCC(=O)O)C(=O)O)cc3)c2c(=O)[nH]1 [Pemetrexed] (partner 0.2 µM)
relative viability (NCI-H358; first compound 5 µM): 0.152 | relative viability (NCI-H358; first compound 15.81 µM): 0.172 | relative viability (NCI-H358; first compound 50 µM): 0.182 | relative viability (NCI-H358; first compound 158.11 µM): 0.156 | relative viability (NCI-H358; first compound 500 µM): 0.0253 | relative viability (HCC-78; first compound 15.81 µM): 0.898 | relative viability (HCC-78; first compound 50 µM): 0.906 | relative viability (HCC-78; first compound 158.11 µM): 0.874 | relative viability (HCC-78; first compound 500 µM): 0.913 | relative viability (HCC-827; first compound 5 µM): 0.251 | relative viability (HCC-827; first compound 15.81 µM): 0.268 | relative viability (HCC-827; first compound 50 µM): 0.276 | relative viability (HCC-827; first compound 158.11 µM): 0.267 | relative viability (HCC-827; first compound 500 µM): 0.273 | relative viability (NCI-H1650; first compound 5 µM): 0.346 | relative viability (NCI-H1650; first compound 15.81 µM): 0.376 | relative viability (NCI-H1650; first compound 50 µM): 0.393 | relative viability (NCI-H1650; first compound 158.11 µM): 0.151 | relative viability (NCI-H1650; first compound 500 µM): 0.0174 | relative viability (NCI-H2126; first compound 5 µM): 0.65 | relative viability (NCI-H2126; first compound 15.81 µM): 0.632 | relative viability (NCI-H2126; first compound 50 µM): 0.636 | relative viability (NCI-H2126; first compound 158.11 µM): 0.385 | relative viability (NCI-H2126; first compound 500 µM): 0.219 | relative viability (COR-L 105; first compound 5 µM): 1.01 | relative viability (COR-L 105; first compound 15.81 µM): 1.02 | relative viability (COR-L 105; first compound 50 µM): 1.15 | relative viability (COR-L 105; first compound 158.11 µM): 0.392 | relative viability (COR-L 105; first compound 500 µM): 0.229 | relative viability (NCI-H1944; first compound 5 µM): 0.647 | relative viability (NCI-H1944; first compound 15.81 µM): 0.575 | relative viability (NCI-H1944; first compound 50 µM): 0.577 | relative viability (NCI-H1944; first compound 158.11 µM): 0.339 | relative viability (NCI-H1944; first compound 500 µM): 0.408 | relative viability (SW 1573; first compound 5 µM): 0.771 | relative viability (SW 1573; first compound 15.81 µM): 0.777 | relative viability (SW 1573; first compound 50 µM): 0.781 | relative viability (SW 1573; first compound 158.11 µM): 0.317 | relative viability (SW 1573; first compound 500 µM): 0.0621 | relative viability (EPLC-272H; first compound 5 µM): 0.324 | relative viability (EPLC-272H; first compound 15.81 µM): 0.289 | relative viability (EPLC-272H; first compound 50 µM): 0.318 | relative viability (EPLC-272H; first compound 158.11 µM): 0.206 | relative viability (EPLC-272H; first compound 500 µM): 0.05 | relative viability (SK-MES-1; first compound 5 µM): 0.975 | relative viability (SK-MES-1; first compound 15.81 µM): 0.807 | relative viability (SK-MES-1; first compound 50 µM): 0.737 | relative viability (SK-MES-1; first compound 158.11 µM): 0.17 | relative viability (SK-MES-1; first compound 500 µM): 0.104 | relative viability (LCLC-97TM1; first compound 5 µM): 0.166 | relative viability (LCLC-97TM1; first compound 15.81 µM): 0.208 | relative viability (LCLC-97TM1; first compound 50 µM): 0.176 | relative viability (LCLC-97TM1; first compound 158.11 µM): 0.162 | relative viability (LCLC-97TM1; first compound 500 µM): 0.0608
